Results reported in PubChem BioAssay AID493130 (Broad Institute, 2011).
Inconclusive results are not listed. Calls of active or inactive are those of the source.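 Rule for the calls: active = signal-lowering compounds whose fitted half-maximal concentration is at most ten times their highest tested dose; inconclusive = flat fit between -30 and -70%, or poor fit; inactive = flat within 30%, signal rising, or potency beyond limit.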

Molecular target: POS-1 (Caenorhabditis elegans) binding to mex-3 RNA
Assay: C. elegans POS-1 RNA interaction disruptors – biochemical, fluorescence polarization, cherry-picked samples, set 2, counter-screen for MEX-5 RNA-binding inhibitor project, dose response (AID 493130);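 note: POS-1 as maltose binding protein fusion made in E. coli with FITC RNA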;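 for activity change, negative = inhibition: 0% = DMSO neutral wells and -100% = excess unlabeled mex3 competitor RNA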
Settings: POS-1/mex-3 RNA fluorescence polarization, 1 h

| Structure (SMILES) | AC50 [µM] |
| --- | --- |
| Cn1c(=O)c2[nH]c(-c3ccccc3)c(O)c2n(C)c1=O | 2.27 |
| CCC(=O)Oc1ccc2c(c1)O/C(=C\c1ccco1)C2=O | 5.63 |
| N=C1CCC(=N)c2c1c(O)c1ccccc1c2O | 5.58 |
| Cc1ccc(C)n1-c1sccc1C(=O)O | 6.08 |

Same assay, conditions: POS-1/mex-3 RNA fluorescence polarization, 1 h; at 10 µM (top of the series)

| Structure (SMILES) | activity change, negative = inhibition |
| --- | --- |
| Cn1c(=O)c2c(nc(NN=C3CCCCC3)n2C)n(C)c1=O | inactive |
| O=C(N/N=C/c1cc2c(cc1Cl)OCO2)c1ccccn1 | inactive |
| COc1cccc(NCc2cc(=O)oc3cc(C)c(C(C)C)cc23)c1 | inactive |
| Cc1ccc2c(c1)-c1ccccc1S(=O)(=O)N2 | inactive |
| CC[n+]1c(/C=C/C=C/c2ccc(N(C)C)cc2)sc2ccccc21 | inactive |
| CC1CN(c2nc3ccccc3nc2C(C#N)C(=O)NCc2ccc3c(c2)OCO3)CC(C)O1 (stereo not drawn) | inactive |
| COC(=O)COc1ccc(C2Nc3c(Cl)ccc(C(=O)O)c3C3C=CCC32)cc1 (stereo not drawn) | inactive |
| CC1CN2C(c3ccc([N+](=O)[O-])cc3)=CSC2=N1 (stereo not drawn) | inactive |
| NC(=O)C(=O)N/N=C/c1c2ccccc2cc2ccccc12 | inactive |
| Cc1cccc(C(=O)NNc2ncnc3c2cnn3C)c1 | inactive |
| N#CCCn1c2ccccc2c2nc3ccccc3nc21 | inactive |
| O=C1c2cccc3cccc(c23)C(=O)N1Cc1ccccc1 | inactive |
| Cc1ccc(-c2ccc(/C=N/N=C3/NC(=O)C(CC(=O)O)S3)o2)c([N+](=O)[O-])c1 (stereo not drawn) | inactive |
| Cc1cccn2c(=O)c3cc(C(=O)NC(C)C)c(=N)n(Cc4ccncc4)c3nc12 | inactive |
| Cc1cccc(CS(=O)(=O)c2nnc([C@H](Cc3ccccc3)NC(=O)OC(C)(C)C)o2)c1 | inactive |
| CCOc1cc(/C=N/NC(=O)N/N=C/c2ccc(O)c(OCC)c2)ccc1O | inactive |
| COc1cc(/C=C2\CCCc3c2nc2ccccc2c3C(=O)O)cc(OC)c1O | inactive |

| Structure (SMILES) | activity change, negative = inhibition |
| --- | --- |
| N#C/C(C(N)=O)=C1/CCc2ccccc2N1 | inactive |
| Cc1ccc(C)c(NC(=O)CCC(=O)NNC(=S)Nc2ccccc2)c1 | inactive |
| S=c1[nH]cnc2sc(Nc3ccccc3)nc12 | inactive |
| CN(N=Nc1ccc([N+](=O)[O-])cc1)c1ccccc1 | inactive |
| O=C(N/N=C/c1cccnc1)c1ccc(O)cc1 | inactive |
| CCOC(=O)CC1=C(C(=O)OCC)C(c2ccc(OC)c(OC)c2)C(C#N)=C(N)O1 (stereo not drawn) | inactive |
| O=C(O)COc1ccc(Br)cc1C(c1c(C(=O)O)[nH]c2ccccc12)c1c(C(=O)O)[nH]c2ccccc12 | inactive |
| O=C(/C=C/c1ccc(O)c(O)c1)OC1C(O)CC(OC(=O)/C=C/c2ccc(O)c(O)c2)(C(=O)O)CC1O (stereo not drawn) | inactive |
| N#C/C(=C\c1cccc([N+](=O)[O-])c1)c1nnc2n1CCCCC2 | inactive |
| COc1cc2c(cc1O)C[C@H]1NCCc3cc4c(c-2c31)OCO4 | inactive |
| COC(=O)c1cc(NC(=O)c2ccccc2)c(=O)oc1C | inactive |
| CC1=C/C(=C(/c2cc(C)c(O)c(Br)c2)c2ccccc2S(=O)(=O)O)C=C(Br)C1=O | inactive |
| O=C(N/N=C/c1c(O)n(Cc2ccco2)c(=O)[nH]c1=O)c1ccccc1 | inactive |
| Oc1cc2c(c(Cl)c1O)CCNCC2c1ccccc1 (stereo not drawn) | inactive |
| Oc1ccc(Br)cc1C=Nc1cccn2cc(-c3ccccc3)nc12 | inactive |
| Nc1nc(-c2ccc(Cl)cc2)nnc1-c1ccc(Br)cc1 | inactive |
| C#CCN1C(=O)S/C(=C\c2ccc(N3CCOCC3)cc2C)C1=O | inactive |
